Test results reported in ChEMBL document CHEMBL3997820, “Synthesis and evaluation of anticonvulsant properties of new N-Mannich bases derived from pyrrolidine-2,5-dione and its 3-methyl-, 3-isopropyl, and 3-benzhydryl analogs” (Bioorg Med Chem Lett, 2017).
Activity calls are given as the source filed them. The rule behind the calls is not given here.

Legend:
Mus musculus [1] = assay: Anticonvulsant activity in ip dosed albino CD1 mouse assessed as protection against subcutaneous pentylenetetrazole-induced seizures; type: functional
Mus musculus [2] = assay: Anticonvulsant activity in albino CD1 mouse assessed as protection against 32 mA current-induced seizure at 100 mg/kg, ip after 4 hrs by 6 Hz psychomotor test; type: functional, organism-based
Mus musculus [3] = assay: Anticonvulsant activity in ip dosed albino CD1 mouse assessed as minimum dose required to protect subcutaneous pentylenetetrazole-induced seizures in half and more mouse measured after 0.5 hrs; type: functional
Mus musculus [4] = assay: Anticonvulsant activity in ip dosed albino CD1 mouse assessed as minimum dose required to protect subcutaneous pentylenetetrazole-induced seizures in half and more mouse measured after 4 hrs; type: functional
Mus musculus [5] = assay: Neurotoxicity in albino CD1 mouse assessed as motor impairment at 300 mg/kg, ip measured after 0.5 hrs by rotarod test; type: toxicity, organism-based; settings: in vivo
Mus musculus [6] = assay: Neurotoxicity in albino CD1 mouse assessed as motor impairment at 300 mg/kg, ip measured after 4 hrs by rotarod test; type: toxicity, organism-based; settings: in vivo
Mus musculus [7] = assay: Anticonvulsant activity in albino CD1 mouse assessed as protection against maximal electroshock-induced seizures at 300 mg/kg, ip measured after 4 hrs; type: functional, organism-based
Mus musculus [8] = assay: Protection index, ratio of TD50 for motor impairment in ip dosed albino CD1 mouse to ED50 for protection against subcutaneous pentylenetetrazole-induced seizures in ip dosed albino CD1 mouse
Mus musculus [9] = assay: Anticonvulsant activity in albino CD1 mouse assessed as protection against maximal electroshock-induced seizures at 300 mg/kg, ip measured after 0.5 hrs; type: functional, organism-based
[10] = Neurotoxicity in ip dosed albino CD1 mouse assessed as motor impairment by rotarod test; type: toxicity, organism-based; settings: in vivo
Mus musculus [11] = assay: Anticonvulsant activity in albino CD1 mouse assessed as protection against 32 mA current-induced seizure at 100 mg/kg, ip after 0.5 hrs by 6 Hz psychomotor test; type: functional
Mus musculus [12] = assay: Anticonvulsant in ip dosed CD1 mouse assessed as time to peak effect; type: functional
Mus musculus [13] = assay: Anticonvulsant activity in ip dosed albino CD1 mouse assessed as protection against maximal electroshock-induced seizures; type: functional
Mus musculus [14] = assay: Neurotoxicity in ip dosed albino CD1 mouse assessed as minimum dose required to induce motor impairment in half and more mouse measured after 0.5 hrs by rotarod test; type: toxicity, organism-based; settings: in vivo
Rattus norvegicus = species on record: Rattus norvegicus; assay: Inhibition of [3H]-BTX binding to voltage-sensitive Na+ channel site 2 in Sprague-Dawley rat cerebral cortex synaptoneurosomes at 100 uM after 60 mins by liquid scintillation spectroscopic method relative to control
Mus musculus [15] = assay: Anticonvulsant activity in ip dosed albino CD1 mouse assessed as minimum dose required to protect maximal electroshock-induced seizures in half and more mouse measured after 0.5 hrs; type: functional
Mus musculus [16] = assay: Anticonvulsant activity in ip dosed albino CD1 mouse assessed as protection against subcutaneous pentylenetetrazole-induced seizures by measuring time to peak effect; type: functional
Mus musculus [17] = assay: Anticonvulsant activity in ip dosed albino CD1 mouse assessed as protection against 32 mA current-induced seizure by 6 Hz psychomotor test; type: functional
Homo sapiens = species on record: Homo sapiens; assay: Inhibition of N-type calcium channel (unknown origin)
Mus musculus [18] = assay: Neurotoxicity in ip dosed albino CD1 mouse assessed as minimum dose required to induce motor impairment in half and more mouse measured after 4 hrs by rotarod test; type: toxicity, organism-based; settings: in vivo
Mus musculus [19] = assay: Protection index, ratio of TD50 for motor impairment in ip dosed albino CD1 mouse to ED50 for protection against maximal electroshock-induced seizures in ip dosed albino CD1 mouse
Mus musculus [20] = assay: Anticonvulsant activity in albino CD1 mouse assessed as protection against subcutaneous pentylenetetrazole-induced seizures at 300 mg/kg, ip measured after 0.5 hrs; type: functional, organism-based
Mus musculus [21] = assay: Protection index, ratio of TD50 for motor impairment in ip dosed albino CD1 mouse to ED50 for protection against 32 mA current-induced seizure in ip dosed albino CD1 mouse by 6 Hz psychomotor test
Mus musculus [22] = assay: Anticonvulsant activity in ip dosed albino CD1 mouse assessed as protection against maximal electroshock-induced seizures by measuring time to peak effect; type: functional
Mus musculus [23] = assay: Anticonvulsant activity in ip dosed albino CD1 mouse assessed as minimum dose required to protect maximal electroshock-induced seizures in half and more mouse measured after 4 hrs; type: functional
Mus musculus [24] = assay: Anticonvulsant activity in albino CD1 mouse assessed as protection against subcutaneous pentylenetetrazole-induced seizures at 300 mg/kg, ip measured after 4 hrs; type: functional, organism-based
Mus musculus [25] = assay: Anticonvulsant activity in albino CD1 mouse assessed as protection against 32 mA current-induced seizure incidents at 100 mg/kg, ip after 0.5 hrs by 6 Hz psychomotor test; type: functional

In the case of CC(C)C1CC(=O)N(CN2CCN(C)CC2)C1=O (centres undefined), the ED50 (Mus musculus [1]) is reported as 74.9 mg/kg, the Activity (Mus musculus [2]) is reported as “inactive” and the Activity (Mus musculus [3]) is reported as 100 mg/kg. The Activity (Mus musculus [4]) was 300 mg/kg, the Activity (Mus musculus [5]) was “Non-Toxic” and the Activity (Mus musculus [6]) was “Non-Toxic”. For the same compound, the Activity (Mus musculus [7]) was “inactive”, the “Ratio TD50/ED50” value (Mus musculus [8]) was greater than 4 and the Activity (Mus musculus [9]) was “inactive”. For the same compound, the TD50 [10] was greater than 300 mg/kg, the Activity (Mus musculus [11]) was “inactive” and the Time (Mus musculus [12]) was 0.5 h.

Work on O=C1CC(C(c2ccccc2)c2ccccc2)C(=O)N1CN1CCOCC1 (centres undefined) yielded an ED50 (Mus musculus [13]) of 41 mg/kg, an Activity (Mus musculus [14]) of 300 mg/kg and an ED50 (Mus musculus [1]) of 102 mg/kg. For the same compound, the inhibition (Rattus norvegicus) was 29.9%, the Activity (Mus musculus [15]) was 100 mg/kg and the Time (Mus musculus [16]) was 4 h. For the same compound, the ED50 (Mus musculus [17]) was 45.4 mg/kg, the Activity (Mus musculus [4]) was 100 mg/kg and the inhibition (Homo sapiens) was “inactive”. For the same compound, the Activity (Mus musculus [18]) was 300 mg/kg, the “Ratio TD50/ED50” value (Mus musculus [19]) was 6.2 and the Activity (Mus musculus [7]) was “inactive”. The “Ratio TD50/ED50” value (Mus musculus [8]) was 2.5, the Activity (Mus musculus [20]) was “inactive” and the TD50 [10] was 254 mg/kg. For the same compound, the “Ratio TD50/ED50” value (Mus musculus [21]) was 5.59, the Activity (Mus musculus [11]) was 100% and the Time (Mus musculus [22]) was 0.5 h.

COC[C@@H](NC(C)=O)C(=O)NCc1ccccc1 [LACOSAMIDE] showed an ED50 (Mus musculus [17]) of 5.2 mg/kg and a Time (Mus musculus [12]) of 0.5 h.

In the case of CCCC(CCC)C(=O)O [VALPROIC ACID], the ED50 (Mus musculus [1]) is reported as 240 mg/kg, the ED50 (Mus musculus [17]) is reported as 131 mg/kg and the Time (Mus musculus [12]) is reported as 0.5 h.

In the case of O=C1CC(C(c2ccccc2)c2ccccc2)C(=O)N1CN1CCN(Cc2ccccc2)CC1 (centres undefined), the Activity (Mus musculus [3]) is reported as 100 mg/kg, the Activity (Mus musculus [4]) is reported as 300 mg/kg and the Activity (Mus musculus [5]) is reported as “Non-Toxic”. The Activity (Mus musculus [6]) was “Non-Toxic”, the Activity (Mus musculus [7]) was “inactive” and the Activity (Mus musculus [9]) was “inactive”.

For CC(C)C1CC(=O)N(CN2CCN(CCO)CC2)C1=O (centres undefined), the Activity (Mus musculus [4]) was 300 mg/kg, the Activity (Mus musculus [5]) was “Non-Toxic” and the Activity (Mus musculus [23]) was 300 mg/kg. For the same compound, the Activity (Mus musculus [6]) was “Non-Toxic”, the Activity (Mus musculus [20]) was “inactive” and the Activity (Mus musculus [9]) was “inactive”.

CCC1(C)CC(=O)NC1=O (centres undefined) [ETHOSUXIMIDE] showed a Time (Mus musculus [12]) of 0.25 h.

With O=C1CC(C(c2ccccc2)c2ccccc2)C(=O)N1CN1CCN(c2ncccn2)CC1 (centres undefined) the Activity (Mus musculus [3]) was 300 mg/kg, the Activity (Mus musculus [5]) was “Non-Toxic” and the Activity (Mus musculus [6]) was “Non-Toxic”. For the same compound, the Activity (Mus musculus [7]) was “inactive”, the Activity (Mus musculus [24]) was “inactive” and the Activity (Mus musculus [9]) was “inactive”.

For CC(C)C1CC(=O)N(CN2CCN(C3CCCCC3)CC2)C1=O (centres undefined), the ED50 (Mus musculus [1]) was 91.8 mg/kg, the Activity (Mus musculus [4]) was 100 mg/kg and the Activity (Mus musculus [5]) was “Non-Toxic”. The Activity (Mus musculus [6]) was “Non-Toxic”, the Activity (Mus musculus [7]) was “inactive” and the “Ratio TD50/ED50” value (Mus musculus [8]) was less than 2.17. The Activity (Mus musculus [20]) was “inactive”, the Activity (Mus musculus [9]) was “inactive” and the TD50 [10] was less than 200 mg/kg. It also gave a Time (Mus musculus [12]) of 0.5 h.

In the case of CN1CCN(CN2C(=O)CC(C(c3ccccc3)c3ccccc3)C2=O)CC1 (centres undefined), the Activity (Mus musculus [14]) is reported as 300 mg/kg, the ED50 (Mus musculus [1]) is reported as 75.6 mg/kg and the Activity (Mus musculus [2]) is reported as “Active”. The Activity (Mus musculus [15]) was 300 mg/kg, the Activity (Mus musculus [3]) was 100 mg/kg and the ED50 (Mus musculus [17]) was 39.2 mg/kg. For the same compound, the Activity (Mus musculus [23]) was 300 mg/kg, the Activity (Mus musculus [6]) was “Non-Toxic” and the Activity (Mus musculus [24]) was “inactive”. The “Ratio TD50/ED50” value (Mus musculus [8]) was 3.26, the TD50 [10] was 247 mg/kg and the “Ratio TD50/ED50” value (Mus musculus [21]) was 6.28. For the same compound, the Activity (Mus musculus [11]) was 100% and the Time (Mus musculus [12]) was 0.5 h.

O=C1CC(C(c2ccccc2)c2ccccc2)C(=O)N1CN1CCN(CCO)CC1 (centres undefined) showed an Activity (Mus musculus [14]) of 300 mg/kg, an ED50 (Mus musculus [1]) of 83.1 mg/kg and an Activity (Mus musculus [15]) of 300 mg/kg. For the same compound, the Activity (Mus musculus [3]) was 100 mg/kg, the ED50 (Mus musculus [17]) was 51.7 mg/kg and the Activity (Mus musculus [4]) was 100 mg/kg. For the same compound, the Activity (Mus musculus [23]) was 300 mg/kg, the Activity (Mus musculus [6]) was “Non-Toxic” and the “Ratio TD50/ED50” value (Mus musculus [8]) was 2.67. For the same compound, the TD50 [10] was 222 mg/kg, the Activity (Mus musculus [25]) was 66% and the “Ratio TD50/ED50” value (Mus musculus [21]) was 4.29. It also gave a Time (Mus musculus [12]) of 0.5 h.

In the case of CC(C)C1CC(=O)N(CN2CCOCC2)C1=O (centres undefined), the Activity (Mus musculus [2]) is reported as “inactive”, the Activity (Mus musculus [4]) is reported as 300 mg/kg and the Activity (Mus musculus [5]) is reported as “Non-Toxic”. The Activity (Mus musculus [6]) was “Non-Toxic”, the Activity (Mus musculus [7]) was “inactive” and the Activity (Mus musculus [20]) was “inactive”. The Activity (Mus musculus [9]) was “inactive” and the Activity (Mus musculus [11]) was “inactive”.

For CC[C@@H](C(N)=O)N1CCCC1=O, the TD50 [10] was greater than 500 mg/kg and the Time (Mus musculus [12]) was 1 h.

In the case of O=C1CC(C(c2ccccc2)c2ccccc2)C(=O)N1CN1CCN(C2CCCCC2)CC1 (centres undefined), the Activity (Mus musculus [3]) is reported as 300 mg/kg, the Activity (Mus musculus [4]) is reported as 300 mg/kg and the Activity (Mus musculus [5]) is reported as “Non-Toxic”. For the same compound, the Activity (Mus musculus [6]) was “Non-Toxic”, the Activity (Mus musculus [7]) was “inactive” and the Activity (Mus musculus [9]) was “inactive”.

With O=C1CCC(=O)N1CN1CCOCC1 the Activity (Mus musculus [5]) was “Non-Toxic”, the Activity (Mus musculus [6]) was “Non-Toxic” and the Activity (Mus musculus [7]) was “inactive”. The Activity (Mus musculus [24]) was “inactive”, the Activity (Mus musculus [20]) was “inactive” and the Activity (Mus musculus [9]) was “inactive”.

For CC1CC(=O)N(CN2CCN(Cc3ccccc3)CC2)C1=O (centres undefined), the Activity (Mus musculus [5]) was “Non-Toxic”, the Activity (Mus musculus [6]) was “Non-Toxic” and the Activity (Mus musculus [7]) was “inactive”. For the same compound, the Activity (Mus musculus [24]) was “inactive”, the Activity (Mus musculus [20]) was “inactive” and the Activity (Mus musculus [9]) was “inactive”.
